{"source": "paper PMC12377202", "about": "“Design, synthesis, and cytotoxic evaluation of quinazoline-based derivatives as VEGER-2 inhibitors: comparative study against EGFR kinase activity, induction of apoptosis, and molecular docking study” (RSC Advances, 2025)", "type_in_all_cases": "cell-based, human", "key": {"HepG-2": {"tested_on": "HepG-2", "test": "MTT anti-proliferative assay, HepG-2", "settings": "Homo sapiens"}, "[1]": {"test": "MTT cytotoxicity against normal cells", "settings": "human, HEK-293 cells (normal human embryonic kidney)"}, "HEK-293": {"tested_on": "HEK-293", "test": "MTT cytotoxicity against normal cells"}, "MCF-7": {"tested_on": "MCF-7", "test": "MTT anti-proliferative assay, MCF-7", "settings": "Homo sapiens"}, "K-562": {"tested_on": "K-562", "test": "MTT anti-proliferative assay, K-562", "settings": "Homo sapiens, K562"}}, "data": [{"molecule": "CNC(=O)c1cc(Oc2ccc(NC(=O)Nc3ccc(Cl)c(C(F)(F)F)c3)cc2)ccn1", "note": "[Sorafenib, sorafenib, reference compound]", "values": [{"measurement": "viability at 78 µM", "setting": "HepG-2; HepG2, 0.078 umol/ml", "result": 51.7, "unit": "%"}, {"measurement": "cytotoxicity at 0.078 µM", "setting": "HepG-2; HepG2, 0.078 umol/ml, read-out: Toxicity %", "result": 48.3, "unit": "%"}, {"measurement": "viability at 0.313 µM", "setting": "HepG-2; HepG2, 0.313 umol/ml", "result": 16.5, "unit": "%"}, {"measurement": "viability at 0.625 µM", "setting": "HepG-2; HepG2, 0.625 umol/ml", "result": 11.1, "unit": "%"}, {"measurement": "cytotoxicity at 2500 µM", "setting": "HepG-2; HepG2, 2.5 umol/ml, read-out: Toxicity %", "result": 92.1, "unit": "%"}, {"measurement": "cytotoxicity at 10000 µM", "setting": "HepG-2; HepG2, 10 umol/ml, read-out: Toxicity %", "result": 93.1, "unit": "%"}, {"measurement": "viability at 3 days, 0.078 umol/ml", "setting": "[1]; HEK-293, 0.078 umol/ml", "result": 69.4, "unit": "%"}, {"measurement": "viability at 3 days, 0.156 umol/ml", "setting": "[1]; HEK-293, 0.156 umol/ml", "result": 40.8, "unit": "%"}, {"measurement": "viability at 3 days, 0.313 umol/ml", "setting": "[1]; HEK-293, 0.313 umol/ml", "result": 30.9, "unit": "%"}, {"measurement": "viability at 3 days, 0.625 umol/ml", "setting": "[1]; HEK-293, 0.625 umol/ml", "result": 17.6, "unit": "%"}, {"measurement": "viability at 3 days, 1.25 umol/ml", "setting": "[1]; HEK-293, 1.25 umol/ml", "result": 13.1, "unit": "%"}, {"measurement": "viability at 3 days, 2.5 umol/ml", "setting": "[1]; HEK-293, 2.5 umol/ml", "result": 10.3, "unit": "%"}, {"measurement": "viability at 3 days, 10 umol/ml", "setting": "[1]; HEK-293, 10 umol/ml", "result": 6.3, "unit": "%"}, {"measurement": "viability at 3 days, 50 umol/ml", "setting": "[1]; HEK-293, 50 umol/ml", "result": 8.64, "unit": "%"}, {"measurement": "Toxicity %", "setting": "HEK-293; HEK-293, 0.078 umol/ml", "result": 30.65, "unit": "%"}, {"measurement": "Toxicity %", "setting": "HEK-293; HEK-293, 0.156 umol/ml", "result": 59.15, "unit": "%"}, {"measurement": "Toxicity %", "setting": "HEK-293; HEK-293, 0.313 umol/ml", "result": 69.11, "unit": "%"}, {"measurement": "Toxicity %", "setting": "HEK-293; HEK-293, 0.625 umol/ml", "result": 82.43, "unit": "%"}, {"measurement": "Toxicity %", "setting": "HEK-293; HEK-293, 1.25 umol/ml", "result": 86.92, "unit": "%"}, {"measurement": "Toxicity %", "setting": "HEK-293; HEK-293, 2.5 umol/ml", "result": 89.65, "unit": "%"}, {"measurement": "Toxicity %", "setting": "HEK-293; HEK-293, 10 umol/ml", "result": 93.7, "unit": "%"}, {"measurement": "Toxicity %", "setting": "HEK-293; HEK-293, 50 umol/ml", "result": 91.36, "unit": "%"}, {"measurement": "IC50", "setting": "HEK-293; Homo sapiens, HEK293, raw data, HEK-293", "result": 131000, "unit": "nM"}, {"measurement": "IC50", "setting": "MCF-7; MCF7, MTT, MCF-7, read-out: Cytotoxicity against cancer cells IC50 MCF-7", "result": "128 ± 3.1", "unit": "nM"}, {"measurement": "viability at 78 µM", "setting": "MCF-7; MCF7, 0.078 umol/ml", "result": 71.5, "unit": "%"}, {"measurement": "cytotoxicity at 78 µM", "setting": "MCF-7; MCF7, 0.078 umol/ml, read-out: Toxicity %", "result": 28.5, "unit": "%"}, {"measurement": "viability", "setting": "MCF-7; MCF7, 0.313 umol/ml", "result": 25.7, "unit": "%"}, {"measurement": "cytotoxicity at 0.313 µM", "setting": "MCF-7; MCF7, 0.313 umol/ml, read-out: Toxicity %", "result": 74.3, "unit": "%"}, {"measurement": "viability", "setting": "MCF-7; MCF7, 0.625 umol/ml", "result": 16.1, "unit": "%"}, {"measurement": "cytotoxicity at 2500 µM", "setting": "MCF-7; MCF7, 2.5 umol/ml, read-out: Toxicity %", "result": 89.1, "unit": "%"}, {"measurement": "cytotoxicity at 10000 µM", "setting": "MCF-7; MCF7, 10 umol/ml, read-out: Toxicity %", "result": 91.8, "unit": "%"}, {"measurement": "viability at 78 µM", "setting": "K-562; K-562, 0.078 umol/ml", "result": 38.9, "unit": "%"}, {"measurement": "cytotoxicity at 78 µM", "setting": "K-562; K-562, 0.078 umol/ml, read-out: Toxicity %", "result": 61.1, "unit": "%"}, {"measurement": "viability at 0.313 µM", "setting": "K-562; K-562, 0.313 umol/ml", "result": 12.3, "unit": "%"}, {"measurement": "viability at 0.625 µM", "setting": "K-562; K-562, 0.625 umol/ml", "result": 9.18, "unit": "%"}, {"measurement": "cytotoxicity at 2500 µM", "setting": "K-562; K-562, 2.5 umol/ml, read-out: Toxicity %", "result": 92.1, "unit": "%"}, {"measurement": "cytotoxicity at 10000 µM", "setting": "K-562; K-562, 10 umol/ml, read-out: Toxicity %", "result": 92.9, "unit": "%"}, {"measurement": "IC50", "setting": "K-562; MTT, K-562, read-out: Cytotoxicity against cancer cells IC50 K-562", "result": "60.6 ± 2.6", "unit": "nM"}]}]}
